Test results reported in patent US8236860B2, “Inhibition of the survival of pancreatic cancer by cyclohexenone compounds from Antrodia camphorata” (Golden Biotechnology Corporation, priority 2009, dated 2012).

System: pancreatic cancer cell line BxPC-3
Assay: In vitro survival assay (MTT) for anti-pancreatic cancer effects
Assay type: cell-based
Details: Homo sapiens, BxPC-3 cells, 48 hours treatment, 0.03-30 μg/ml, read-out: IC50 (half inhibition concentration), survival of pancreatic cancer cells
Procedure: The compound 4--2,3-dimethoxy-6-methyl-5-(3,7,11-trimethyl-dodeca-2,6,10-trienyl)-cyclohex-2-enone of the formula (2) is explained below as an example for the present invention. The anti-cancer effects of 4--2,3-dimethoxy-6-methyl-5-(3,7,11-trimethyl-dodeca-2,6,10-trienyl)-cyclohex-2-enone was assessed using 3-(4,5-dimethylthiazol-2-yl)-2,5-diphenyltetrazolium bromide MTT) assay according to the anti-cancer drug screening model of National Cancer Institute (NCI) to analyze survival rates on pancreatic cancer cell line BxPC-3. […] Therefore, cyclohexenone compounds from Antrodia camphorata can be used for inhibiting the survival of pancreatic cancer cells and further be applied for the treatment of pancreatic cancer. The details of the examples are described as follows:
Inhibiting effects of pancreatic cancer cells by cyclohexenone compounds of Antrodia camphorata from example 1 were assessed according to the anticancer-drug screening model of National Cancer Institute (NCI). […] Survival of cell was analyzed using MTT assay. […]
The BxPC-3 cells were cultivated in RPMI 1640 medium supplemented with 10% fetal bovine serum, 100 IU/ml of Penicillin and […] of Streptomycin at 37° C., 5% CO2 for 24 hours. […] The absorbances were measured at 570 nm with an ELISA Reader to determine the survival rates.

Structure (SMILES): COC1=C(OC)C(O)C(C/C=C(\C)CC/C=C(\C)CCC=C(C)C)C(C)C1=O (stereo not shown) [formula 2, 4--2,3-dimethoxy-6-methyl-5-(3,7,11-trimethyl-dodeca-2,6,10-trienyl)-cyclohex-2-enone]
- IC50: 1.44 µg/mL
